Each structure is given as a SMILES string. Where two headings read alike, the source gives them in different places.

Experiment in all cases: Ras GTP binding domain inhibition assay (Cy3-GTP/Cy5-GTP competition)
Assay [1] addresses T1, KRas G12D mutant (Homo sapiens, UniProt P01116, G12D).
T1 construct: fused on or other part: His tag, used for capture on nickel-coated plates
Conditions: 20 μM. Put shortly: (§1)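 Ni-plate immobilised His-Ras, overnight 4 °C; cpd 20 μM (or dilution series for IC50), 1% DMSO, 3 h RT; optional His-Sos […] last hour; Cy3- or Cy5-GTP 100 nM, 45 min RT; 3× wash; bound fluorescence read.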

Assay [2] deals with KRas Q61H mutant. Set-up: species or system human. Conditions: 20 μM. In short, it runs like this:
as §1

The subject of assay [3] is KRas wild type. Set-up: species or system human. Conditions: 20 μM; for KRas wild type % inh.: without SOS (Table 7A); for KRas wild type: % inh.: without SOS. In short, it runs like this: as §1
In assay [4] the test system is KRas G12C mutant. Set-up: species or system human. Conditions: 20 μM. Put shortly:
as §1

The mark [5] stands for this setting: with SOS (Table 7A), read-out: KRas G12D mutant + SOS: % inh.
[6] abbreviates: without SOS (Table 7A), read-out: KRas G12D mutant: % inh.
Where [7] appears, read: with SOS, read-out: KRas G-12D mutant + SOS: % inh.
Where [8] appears, read: without SOS, read-out: KRas G12D mutant: % inh.

As to `COc1cccc(-c2sc3nc(-c4nccn4C)nc(NC4CCC(OC)C4)c3c2C)c1F` (stereo not drawn) [drawing 893], the inhibition at 20 µM was in the range of 51 to 75% in assay [1] (setting [5]) and 76 to 100% in assay [1] (setting [6]). Besides, the “KRas Q61H mutant + SOS: % inh.” value in assay [2] (with SOS (Table 7A)) is reported as “C (51-75% inhibition)”. Besides, the “KRas Q61H mutant: % inh.” value in assay [2] (without SOS (Table 7A)) is listed as “C (51-75% inhibition)”. In addition, the “KRas wild type + SOS: % inh.” value in assay [3] (with SOS (Table 7A)) is recorded as “C (51-75% inhibition)”. The “KRas wild type % inh.” value in assay [3] is recorded as “C (51-75% inhibition)”. Also, the “KRas G12C mutant + SOS: % inh.” value in assay [4] (with SOS (Table 7A)) is “C (51-75% inhibition)”. Also, the “KRas G12C mutant: % inh.” value in assay [4] (without SOS (Table 7A)) was “D (76-100% inhibition)”.
For the compound `CC(C)CNC(=O)c1nc(-c2ccccn2)nc(O)c1O` [drawing 811], the results for the inhibition at 20 µM in assay [1] (setting [7]) and in assay [1] (setting [8]) were 1 to 25% and 51 to 75%, respectively. The “KRas Q61H mutant + SOS: % inh.” value in assay [2] (with SOS) is “B (26-50% inhibition)”. Besides, the “KRas Q61H mutant: % inh.” value in assay [2] (without SOS) is “C (51-75% inhibition)”. The “KRas wild type + SOS: % inh.” value in assay [3] (with SOS) is “A (1-25% inhibition)”. Besides, the “KRas wild type: % inh.” value in assay [3] is recorded as “D (76-100% inhibition)”. For the same compound, the “KRas G12C mutant + SOS: % inh.” value in assay [4] (with SOS) was “B (26-50% inhibition)”. Moreover, the “KRas G12C mutant: % inh.” value in assay [4] (without SOS) is listed as “D (76-100% inhibition)”.
`CO[C@H]1CC[C@@H](Nc2nc(-c3nccn3C)nc3sc(C(=O)N4CCCC4)c(-c4ccccc4)c23)C1` [drawing 926]: the inhibition at 20 µM in assay [1] (setting [5]) and in assay [1] (setting [6]) was 51 to 75% each time. The “KRas Q61H mutant + SOS: % inh.” value in assay [2] (with SOS (Table 7A)) is “D (76-100% inhibition)”. Also, the “KRas Q61H mutant: % inh.” value in assay [2] (without SOS (Table 7A)) is listed as “D (76-100% inhibition)”. Further, the “KRas wild type + SOS: % inh.” value in assay [3] (with SOS (Table 7A)) is reported as “C (51-75% inhibition)”. For the same compound, the “KRas wild type % inh.” value in assay [3] is reported as “C (51-75% inhibition)”. The “KRas G12C mutant + SOS: % inh.” value in assay [4] (with SOS (Table 7A)) was “D (76-100% inhibition)”. Further, in assay [4] (without SOS (Table 7A)), the “KRas G12C mutant: % inh.” value is “D (76-100% inhibition)”.
Consider `COC1CCN(c2nc(-c3nccn3C)nc3sc(-c4ccncc4C)c(-c4ccccc4)c23)C1.Cl` (stereo not drawn), for which the inhibition at 20 µM in assay [1] (setting [7]) and in assay [1] (setting [8]) was 26 to 50% throughout. The “KRas Q61H mutant + SOS: % inh.” value in assay [2] (with SOS) is “B (26-50% inhibition)”. The “KRas Q61H mutant: % inh.” value in assay [2] (without SOS) is “A (1-25% inhibition)”. In addition, the “KRas wild type + SOS: % inh.” value in assay [3] (with SOS) is “A (1-25% inhibition)”. Moreover, the “KRas wild type: % inh.” value in assay [3] is reported as “B (26-50% inhibition)”. In assay [4] (with SOS), the “KRas G12C mutant + SOS: % inh.” value is “B (26-50% inhibition)”. The “KRas G12C mutant: % inh.” value in assay [4] (without SOS) was “B (26-50% inhibition)”.
For `COCCNc1nc(-c2nccn2C)nc2sc(-c3cc(OC)ccc3Cl)c(-c3ccc(OC)cc3)c12` [drawing 877], the inhibition at 20 µM was in the range of 26 to 50% in assay [1] (setting [7]) and 1 to 25% in assay [1] (setting [8]). The “KRas Q61H mutant + SOS: % inh.” value in assay [2] (with SOS) is “D (76-100% inhibition)”. Further, the “KRas Q61H mutant: % inh.” value in assay [2] (without SOS) is “A (1-25% inhibition)”. Moreover, the “KRas wild type + SOS: % inh.” value in assay [3] (with SOS) was “D (76-100% inhibition)”. In addition, the “KRas wild type: % inh.” value in assay [3] is “A (1-25% inhibition)”. For the same compound, in assay [4] (with SOS), the “KRas G12C mutant + SOS: % inh.” value is recorded as “C (51-75% inhibition)”. Besides, the “KRas G12C mutant: % inh.” value in assay [4] (without SOS) is listed as “A (1-25% inhibition)”.
Take `COC1CCC(Nc2nc(-c3nccn3C)nc3sc(-c4cccc(O)c4F)c(-c4ccccc4)c23)C1` (stereo not drawn) [drawing 885]: the inhibition at 20 µM fell in the range of 51 to 75% in assay [1] (setting [5]) and 26 to 50% in assay [1] (setting [6]). The “KRas Q61H mutant + SOS: % inh.” value in assay [2] (with SOS (Table 7A)) is listed as “C (51-75% inhibition)”. Also, the “KRas Q61H mutant: % inh.” value in assay [2] (without SOS (Table 7A)) is “B (26-50% inhibition)”. The “KRas wild type + SOS: % inh.” value in assay [3] (with SOS (Table 7A)) was “C (51-75% inhibition)”. For the same compound, the “KRas wild type % inh.” value in assay [3] is listed as “B (26-50% inhibition)”. In addition, the “KRas G12C mutant + SOS: % inh.” value in assay [4] (with SOS (Table 7A)) is “C (51-75% inhibition)”. Moreover, the “KRas G12C mutant: % inh.” value in assay [4] (without SOS (Table 7A)) is recorded as “B (26-50% inhibition)”.
Take `CO[C@H]1C[C@@H](Nc2nc(-c3ncc[nH]3)nc3sc(-c4ccn(C)n4)c(-c4ccccc4)c23)C1` [drawing 910]: the inhibition at 20 µM in assay [1] (setting [5]) and in assay [1] (setting [6]) was 26 to 50% throughout. Besides, in assay [2] (with SOS (Table 7A)), the “KRas Q61H mutant + SOS: % inh.” value is recorded as “B (26-50% inhibition)”. Besides, in assay [2] (without SOS (Table 7A)), the “KRas Q61H mutant: % inh.” value was “C (51-75% inhibition)”. The “KRas wild type + SOS: % inh.” value in assay [3] (with SOS (Table 7A)) is recorded as “A (1-25% inhibition)”. Moreover, in assay [3], the “KRas wild type % inh.” value is given as “B (26-50% inhibition)”. In assay [4] (with SOS (Table 7A)), the “KRas G12C mutant + SOS: % inh.” value is reported as “B (26-50% inhibition)”. Moreover, the “KRas G12C mutant: % inh.” value in assay [4] (without SOS (Table 7A)) is recorded as “B (26-50% inhibition)”.
Consider `COCC(C)Nc1nc(-c2nccn2C)nc2sc(-c3ccn(C)n3)c(-c3ccccc3)c12` (stereo not drawn) [drawing 864], for which the inhibition at 20 µM was in the range of 26 to 50% in assay [1] (setting [7]) and 1 to 25% in assay [1] (setting [8]). The “KRas Q61H mutant + SOS: % inh.” value in assay [2] (with SOS) is on record as “C (51-75% inhibition)”. Besides, the “KRas Q61H mutant: % inh.” value in assay [2] (without SOS) is 0 (0% inhibition). For the same compound, the “KRas wild type + SOS: % inh.” value in assay [3] (with SOS) is “C (51-75% inhibition)”. Further, the “KRas wild type: % inh.” value in assay [3] is 0 (0% inhibition). For the same compound, the “KRas G12C mutant + SOS: % inh.” value in assay [4] (with SOS) is on record as “C (51-75% inhibition)”. Also, the “KRas G12C mutant: % inh.” value in assay [4] (without SOS) is 0 (0% inhibition).
With `Cn1ccnc1-c1nc(O)c2scc(-c3ccccn3)c2n1` [drawing 853], the inhibition at 20 µM in assay [1] (setting [7]) is 51 to 75%; in assay [1] (setting [8]), 76 to 100%. Moreover, in assay [2] (with SOS), the “KRas Q61H mutant + SOS: % inh.” value was “C (51-75% inhibition)”. Besides, in assay [2] (without SOS), the “KRas Q61H mutant: % inh.” value is reported as “D (76-100% inhibition)”. The “KRas wild type + SOS: % inh.” value in assay [3] (with SOS) was “C (51-75% inhibition)”. For the same compound, in assay [3], the “KRas wild type: % inh.” value is listed as “D (76-100% inhibition)”. Moreover, the “KRas G12C mutant + SOS: % inh.” value in assay [4] (with SOS) was “C (51-75% inhibition)”. For the same compound, the “KRas G12C mutant: % inh.” value in assay [4] (without SOS) is reported as “D (76-100% inhibition)”.
On to `Oc1nc(-c2nccn2Cc2ccccn2)nc2c(-c3ccccn3)csc12` [drawing 851], for which the inhibition at 20 µM was 51 to 75% in assay [1] (setting [7]) and 76 to 100% in assay [1] (setting [8]). The “KRas Q61H mutant + SOS: % inh.” value in assay [2] (with SOS) is “D (76-100% inhibition)”. Further, the “KRas Q61H mutant: % inh.” value in assay [2] (without SOS) is recorded as “C (51-75% inhibition)”. The “KRas wild type + SOS: % inh.” value in assay [3] (with SOS) is recorded as “C (51-75% inhibition)”. The “KRas wild type: % inh.” value in assay [3] was “D (76-100% inhibition)”. In addition, the “KRas G12C mutant + SOS: % inh.” value in assay [4] (with SOS) is recorded as “D (76-100% inhibition)”. In assay [4] (without SOS), the “KRas G12C mutant: % inh.” value was “D (76-100% inhibition)”.
As for `COCCNC(=O)c1sc2nc(-c3nccn3C)nc(N[C@@H]3CC[C@H](OC)C3)c2c1-c1ccccc1` [drawing 925], the inhibition at 20 µM in assay [1] (setting [5]) and in assay [1] (setting [6]) was 76 to 100% throughout. Also, in assay [2] (with SOS (Table 7A)), the “KRas Q61H mutant + SOS: % inh.” value is reported as “D (76-100% inhibition)”. Further, the “KRas Q61H mutant: % inh.” value in assay [2] (without SOS (Table 7A)) is on record as “D (76-100% inhibition)”. In addition, in assay [3] (with SOS (Table 7A)), the “KRas wild type + SOS: % inh.” value is recorded as “D (76-100% inhibition)”. Also, the “KRas wild type % inh.” value in assay [3] is reported as “D (76-100% inhibition)”. In addition, in assay [4] (with SOS (Table 7A)), the “KRas G12C mutant + SOS: % inh.” value was “D (76-100% inhibition)”. Further, in assay [4] (without SOS (Table 7A)), the “KRas G12C mutant: % inh.” value is on record as “D (76-100% inhibition)”.
In the case of `COCCNc1nc(-c2cn(C)cn2)nc2sc(-c3ccccc3Cl)c(-c3ccc(OC)cc3)c12` [drawing 873], the inhibition at 20 µM in assay [1] (setting [7]) was 76 to 100%; in assay [1] (setting [8]) it was 26 to 50%. In assay [2] (with SOS), the “KRas Q61H mutant + SOS: % inh.” value is “D (76-100% inhibition)”. Besides, the “KRas Q61H mutant: % inh.” value in assay [2] (without SOS) is “B (26-50% inhibition)”. The “KRas wild type + SOS: % inh.” value in assay [3] (with SOS) is reported as “D (76-100% inhibition)”. The “KRas wild type: % inh.” value in assay [3] was “A (1-25% inhibition)”. Besides, in assay [4] (with SOS), the “KRas G12C mutant + SOS: % inh.” value was “D (76-100% inhibition)”. In assay [4] (without SOS), the “KRas G12C mutant: % inh.” value is reported as “C (51-75% inhibition)”.

(Values after US20250296938A1, “Compounds that Interact with the Ras Superfamily for the Treatment of Cancers, Inflammatory Diseases, Rasopathies, and Fibrotic Disease” (SHY Therapeutics, LLC, priority 2018, published 2025).)
